In the experiment the target is T1, ABCG2 (Homo sapiens, UniProt Q9UNQ0).
T1 sequence (Q9UNQ0 1-655): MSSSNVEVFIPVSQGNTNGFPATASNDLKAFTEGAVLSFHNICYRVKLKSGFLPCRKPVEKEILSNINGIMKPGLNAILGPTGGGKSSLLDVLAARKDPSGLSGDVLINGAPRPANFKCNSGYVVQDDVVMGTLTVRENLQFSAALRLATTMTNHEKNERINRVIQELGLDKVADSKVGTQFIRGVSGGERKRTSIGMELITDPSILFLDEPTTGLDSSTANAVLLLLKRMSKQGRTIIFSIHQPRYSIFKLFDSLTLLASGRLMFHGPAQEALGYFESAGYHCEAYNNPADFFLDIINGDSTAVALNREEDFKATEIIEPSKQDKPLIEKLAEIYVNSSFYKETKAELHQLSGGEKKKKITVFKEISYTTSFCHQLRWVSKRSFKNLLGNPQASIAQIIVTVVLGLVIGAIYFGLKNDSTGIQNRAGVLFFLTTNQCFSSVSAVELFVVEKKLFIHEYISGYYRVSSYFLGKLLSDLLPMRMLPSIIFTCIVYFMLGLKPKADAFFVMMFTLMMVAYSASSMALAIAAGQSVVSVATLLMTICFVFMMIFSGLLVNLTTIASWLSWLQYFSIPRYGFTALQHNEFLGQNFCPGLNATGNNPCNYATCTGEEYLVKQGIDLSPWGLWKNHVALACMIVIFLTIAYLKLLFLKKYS
Description: inhibition of [3H]methotrexate transport in Sf9 membrane vesicles. The class given is biochemical.

As usually defined, the IC50 is the concentration that inhibits the measured activity by half. A high value points to a need for much substance. Take `Nc1nc(Cl)nc2c1ncn2[C@@H]1O[C@H](CO)[C@@H](O)[C@@H]1F` [clofarabine]: the IC50 was ~14 µM.
